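In this assay, cells in 96-well plates receive the compound at five concentrations for 48 hours. Endpoints are linearly interpolated between the surrounding concentrations. GI50: concentration for 50% inhibition of growth. TGI: total growth inhibition.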
Assays:
Test in all cases: inhibition of tumour cell growth, NCI panel, 48 h
ACHN renal = tested on: ACHN renal
SW-620 colon = tested on: SW-620 colon
SK-MEL-5 melanoma = tested on: SK-MEL-5 melanoma
NCI-H23 lung = tested on: NCI-H23 lung
HOP-62 NSCLC = tested on: HOP-62 NSCLC
MALME-3M melanoma = tested on: MALME-3M melanoma
786-0 renal = tested on: 786-0 renal
OVCAR-5 ovarian = tested on: OVCAR-5 ovarian
CAKI-1 renal = tested on: CAKI-1 renal
NCI-H226 lung = tested on: NCI-H226 lung
HOP-92 NSCLC = tested on: HOP-92 NSCLC
T-47D breast = tested on: T-47D breast
SNB-75 CNS = tested on: SNB-75 CNS
DU-145 prostate = tested on: DU-145 prostate
KM12 colon = tested on: KM12 colon
HCT-15 colon = tested on: HCT-15 colon
A498 renal = tested on: A498 renal
SNB-19 CNS = tested on: SNB-19 CNS
UACC-257 melanoma = tested on: UACC-257 melanoma
M14 melanoma = tested on: M14 melanoma
HCT-116 colon = tested on: HCT-116 colon
U251 CNS = tested on: U251 CNS
NCI-H460 lung = tested on: NCI-H460 lung
LOX IMVI melanoma = tested on: LOX IMVI melanoma
A549 NSCLC = tested on: A549 NSCLC
SK-OV-3 ovarian = tested on: SK-OV-3 ovarian
BT-549 breast = tested on: BT-549 breast
CCRF-CEM leukemia = tested on: CCRF-CEM leukemia
TK-10 renal = tested on: TK-10 renal
UO-31 renal = tested on: UO-31 renal
K-562 leukemia = tested on: K-562 leukemia
UACC-62 melanoma = tested on: UACC-62 melanoma
HCC-2998 colon = tested on: HCC-2998 colon
HL-60(TB) leukemia = tested on: HL-60(TB) leukemia
SK-MEL-2 melanoma = tested on: SK-MEL-2 melanoma
MDA-MB-435 = tested on: MDA-MB-435
RXF 393 renal = tested on: RXF 393 renal
NCI/ADR-RES ovarian = tested on: NCI/ADR-RES ovarian
HS 578T breast = tested on: HS 578T breast
PC-3 prostate = tested on: PC-3 prostate
SN12C renal = tested on: SN12C renal
HT29 colon = tested on: HT29 colon
RPMI-8226 leukemia = tested on: RPMI-8226 leukemia
COLO 205 colon = tested on: COLO 205 colon
SK-MEL-28 melanoma = tested on: SK-MEL-28 melanoma
OVCAR-8 ovarian = tested on: OVCAR-8 ovarian
OVCAR-4 ovarian = tested on: OVCAR-4 ovarian
IGROV1 ovarian = tested on: IGROV1 ovarian
EKVX NSCLC = tested on: EKVX NSCLC
MCF7 breast = tested on: MCF7 breast
SR leukemia = tested on: SR leukemia
NCI-H522 lung = tested on: NCI-H522 lung
MDA-MB-468 breast = tested on: MDA-MB-468 breast
OVCAR-3 ovarian = tested on: OVCAR-3 ovarian
SF-268 CNS = tested on: SF-268 CNS
MDA-MB-231 breast = tested on: MDA-MB-231 breast
SF-539 CNS = tested on: SF-539 CNS
MOLT-4 leukemia = tested on: MOLT-4 leukemia
SF-295 CNS = tested on: SF-295 CNS

O=C(NO)c1ccc(Cn2ccc3c(Nc4ccccc4)ncnc32)cc1
GI50 (ACHN renal): 1.95 µM | TGI (ACHN renal): 5.92 µM | GI50 (SW-620 colon): 0.863 µM | TGI (SW-620 colon): 3.31 µM | GI50 (SK-MEL-5 melanoma): 1.06 µM | TGI (SK-MEL-5 melanoma): 4.05 µM | GI50 (NCI-H23 lung): 1.47 µM | TGI (NCI-H23 lung): 5.08 µM | GI50 (HOP-62 NSCLC): 2.2 µM | TGI (HOP-62 NSCLC): 7.63 µM | GI50 (MALME-3M melanoma): 0.869 µM | TGI (MALME-3M melanoma): 4.1 µM | GI50 (786-0 renal): 3.78 µM | TGI (786-0 renal): 8.97 µM | GI50 (OVCAR-5 ovarian): 1.02 µM | TGI (OVCAR-5 ovarian): 5.07 µM | GI50 (CAKI-1 renal): 2.17 µM | TGI (CAKI-1 renal): 6.91 µM | GI50 (NCI-H226 lung): 3.88 µM | TGI (NCI-H226 lung): 16 µM | GI50 (HOP-92 NSCLC): 1.74 µM | TGI (HOP-92 NSCLC): 7.35 µM | GI50 (T-47D breast): 2.42 µM | TGI (T-47D breast): > 29 µM | GI50 (SNB-75 CNS): 1.04 µM | TGI (SNB-75 CNS): 6.11 µM | GI50 (DU-145 prostate): 1.41 µM | TGI (DU-145 prostate): > 29 µM | GI50 (KM12 colon): 3.7 µM | TGI (KM12 colon): 10.9 µM | GI50 (HCT-15 colon): 3.59 µM | TGI (HCT-15 colon): 7.81 µM | GI50 (A498 renal): 1.31 µM | TGI (A498 renal): 6.79 µM | GI50 (SNB-19 CNS): 3.26 µM | TGI (SNB-19 CNS): 7.51 µM | GI50 (UACC-257 melanoma): 2.3 µM | TGI (UACC-257 melanoma): 9.79 µM | GI50 (M14 melanoma): 2.99 µM | TGI (M14 melanoma): 10.1 µM | GI50 (HCT-116 colon): 0.993 µM | TGI (HCT-116 colon): 5.6 µM | GI50 (U251 CNS): 2.78 µM | TGI (U251 CNS): 15.8 µM | GI50 (NCI-H460 lung): 1.33 µM | TGI (NCI-H460 lung): 8.45 µM | GI50 (LOX IMVI melanoma): 1.78 µM | TGI (LOX IMVI melanoma): 5.44 µM | GI50 (A549 NSCLC): 3.1 µM | TGI (A549 NSCLC): 15.5 µM | GI50 (SK-OV-3 ovarian): 2 µM | TGI (SK-OV-3 ovarian): 9.87 µM | GI50 (BT-549 breast): 7.71 µM | TGI (BT-549 breast): 15.4 µM | GI50 (CCRF-CEM leukemia): 1.41 µM | TGI (CCRF-CEM leukemia): > 29 µM | GI50 (TK-10 renal): 1.42 µM | TGI (TK-10 renal): 12 µM | GI50 (UO-31 renal): 2.42 µM | TGI (UO-31 renal): 6.38 µM | GI50 (K-562 leukemia): 1.14 µM | TGI (K-562 leukemia): > 29 µM | GI50 (UACC-62 melanoma): 1.04 µM | TGI (UACC-62 melanoma): 4.42 µM | GI50 (HCC-2998 colon): 2.62 µM | TGI (HCC-2998 colon): 6.12 µM | GI50 (HL-60(TB) leukemia): 0.984 µM | TGI (HL-60(TB) leukemia): 3.89 µM | GI50 (SK-MEL-2 melanoma): 4.75 µM | TGI (SK-MEL-2 melanoma): 11.4 µM | GI50 (MDA-MB-435): 1.22 µM | TGI (MDA-MB-435): 5.03 µM | GI50 (RXF 393 renal): 0.934 µM | TGI (RXF 393 renal): 4.02 µM | GI50 (NCI/ADR-RES ovarian): 0.636 µM | TGI (NCI/ADR-RES ovarian): 2.03 µM | GI50 (HS 578T breast): 1.7 µM | TGI (HS 578T breast): 17.5 µM | GI50 (PC-3 prostate): 2.82 µM | TGI (PC-3 prostate): 21.5 µM | GI50 (SN12C renal): 3.29 µM | TGI (SN12C renal): 7.05 µM | GI50 (HT29 colon): 1.43 µM | TGI (HT29 colon): 14.1 µM | GI50 (RPMI-8226 leukemia): 1.1 µM | TGI (RPMI-8226 leukemia): > 29 µM | GI50 (COLO 205 colon): 1.43 µM | TGI (COLO 205 colon): 5.73 µM | GI50 (SK-MEL-28 melanoma): 2.04 µM | TGI (SK-MEL-28 melanoma): 6.29 µM | GI50 (OVCAR-8 ovarian): 1.29 µM | TGI (OVCAR-8 ovarian): 8.8 µM | GI50 (OVCAR-4 ovarian): 5.79 µM | TGI (OVCAR-4 ovarian): > 29 µM | GI50 (IGROV1 ovarian): 2.34 µM | TGI (IGROV1 ovarian): 6.22 µM | GI50 (EKVX NSCLC): 2.75 µM | TGI (EKVX NSCLC): 6.9 µM | GI50 (MCF7 breast): 3.8 µM | TGI (MCF7 breast): 12.4 µM | GI50 (SR leukemia): 0.817 µM | TGI (SR leukemia): > 29 µM | GI50 (NCI-H522 lung): 1.07 µM | TGI (NCI-H522 lung): 4.87 µM | GI50 (MDA-MB-468 breast): 0.718 µM | TGI (MDA-MB-468 breast): 2.76 µM | GI50 (OVCAR-3 ovarian): 3.06 µM | TGI (OVCAR-3 ovarian): 12.1 µM | GI50 (SF-268 CNS): 4.06 µM | TGI (SF-268 CNS): 9.64 µM | GI50 (MDA-MB-231 breast): 1.94 µM | TGI (MDA-MB-231 breast): 6.68 µM | GI50 (SF-539 CNS): 2.55 µM | TGI (SF-539 CNS): 6.77 µM | GI50 (MOLT-4 leukemia): 0.93 µM | TGI (MOLT-4 leukemia): 7.6 µM | GI50 (SF-295 CNS): 1.73 µM | TGI (SF-295 CNS): 5.74 µM

— PubChem BioAssay (NCI)
